Literature values as cited in US12357619B2, “Noradrenergic and specific serotonergic anxiolytic and antidepressant, method for the production and use thereof” (ALLA CHEM, LLC, priority 2020, dated 2025).

Biological target: T1, Serotonin 5-HT2C (Homo sapiens, UniProt P28335)
T1 sequence (P28335 33-458): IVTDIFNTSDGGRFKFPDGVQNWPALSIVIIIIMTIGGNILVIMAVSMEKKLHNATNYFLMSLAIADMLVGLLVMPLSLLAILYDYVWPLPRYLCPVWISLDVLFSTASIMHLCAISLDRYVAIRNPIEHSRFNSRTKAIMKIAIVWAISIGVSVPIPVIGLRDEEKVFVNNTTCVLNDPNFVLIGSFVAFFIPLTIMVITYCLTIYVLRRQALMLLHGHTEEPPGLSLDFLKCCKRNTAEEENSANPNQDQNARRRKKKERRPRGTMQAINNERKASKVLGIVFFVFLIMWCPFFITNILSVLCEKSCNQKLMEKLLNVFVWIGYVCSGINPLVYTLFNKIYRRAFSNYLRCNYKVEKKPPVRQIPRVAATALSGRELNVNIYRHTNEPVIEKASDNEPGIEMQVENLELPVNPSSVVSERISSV
Settings: from en.wikipedia.org/wiki/Mirtazapine; cited from earlier work

SMILES: CN1CCN2c3ncccc3Cc3ccccc3C2C1 (stereo not shown) [Mirtazapine]
- Ki: 8.9 to 39 nM
